Columns and labels:
physchem = details: octan-1-ol/water, pH 7.4, LogD7.4
in vitro = details: human, plasma, PPB

logD (physchem)	fraction unbound at 5 h (in vitro)	Structure (SMILES)
2.91	0.0676	CC(=O)Nc1ccc(-c2ccnc(Nc3ccc(N4CCOCC4)cc3)n2)cc1
2.9	0.0467	Cc1cnc(Nc2cc(N3CCN(C)CC3)nc(N[C@@H](C)c3ccc(F)cn3)n2)s1
2.26	0.117	C[C@H](Nc1nc(Nc2ncc(C#N)s2)cc(N2CCOCC2)n1)c1ncc(F)cn1
1.91	0.173	Cc1cnc(Nc2cncc(N[C@@H](C)c3ncc(F)cn3)n2)s1
2.99	0.103	COc1cc(Nc2ncc(C)s2)nc(N[C@@H](C)c2ncc(F)cn2)n1
2.68	0.0736	Cc1cnc(Nc2cc(N3CCOCC3)nc(N[C@@H](C)c3ncc(F)cn3)n2)s1
2.78	0.0081	NC(=O)c1cnc(N[C@H]2CCCNC2)c2cc(-c3ccc(Cl)cc3)sc12
2.76	0.0106	NC(=O)c1cnc(N[C@H]2CCCNC2)c2cc(-c3ccc(Cl)c(F)c3)sc12
2.01	0.0262	NC(=O)c1cnc(N[C@H]2CCCNC2)c2cc(-c3ccc(F)cc3)sc12
2.01	0.201	Nc1nc2nc(-c3cccs3)cc(C(F)(F)F)n2n1
2.08	0.11	N#Cc1c(N)nc2c(c1N)CC(COc1ccccc1)O2 (stereo not drawn)
2.2	0.134	CNC(=O)c1[nH]cnc1C(=O)Nc1ccc(OC)cc1
2	0.28	O=C(CSc1nccn(-c2ccc(F)c(F)c2)c1=O)NC1CCCC1
2.59	0.0391	Cc1ccc(-c2csc3ncnc(O)c23)cc1
3	0.101	O=C1CN(C(=O)c2ccco2)C(c2ccccc2)c2cc(Cl)ccc2N1 (stereo not drawn)
2.9	0.0374	COc1ccc(CC(=O)Nc2nc3ccccc3[nH]2)cc1
2.71	0.0343	Nc1ccc(OCCc2ccccc2)cc1
2.67	0.0676	CC(C)CCOc1ccc(N)cc1
2.47	0.224	C[C@H](Nc1ncc(F)c(Nc2cc(C3CC3)[nH]n2)n1)c1ncc(F)cn1
2.53	0.121	COc1cc(Nc2nc(N[C@@H](C)c3ncc(F)cn3)ncc2Cl)n[nH]1
2.6	0.124	COc1cc(Nc2nc(N[C@@H](C)c3ncc(F)cn3)ncc2Br)n[nH]1
2.39	0.0854	Cc1cc(Nc2nc(N[C@@H](C)c3ncc(F)cn3)ncc2Br)n[nH]1
2.33	0.105	C[C@H](Nc1ncc(Cl)c(Nc2cc(N(C)C)[nH]n2)n1)c1ncc(F)cn1
1.98	0.22	C[C@H](Nc1ncc(F)c(Nc2cc(N(C)C)[nH]n2)n1)c1ncc(F)cn1
1.91	0.54	Cc1cc(Nc2cc(N3CCOCC3)nc(N[C@@H](C)c3ncc(F)cn3)n2)[nH]n1
2.61	0.228	Cc1cc(Nc2nc(N[C@@H](C)c3ncc(F)cn3)nc(N3CCOCC3)c2Cl)n[nH]1
2.18	0.276	COc1cc(Nc2cc(N3CCOCC3)nc(N[C@@H](C)c3ncc(F)cn3)n2)n[nH]1

logD (physchem)	fraction unbound at 5 h (in vitro)	Structure (SMILES)
2.64	0.253	COc1cc(Nc2nc(N[C@@H](C)c3ncc(F)cn3)nc(N3CCOCC3)c2F)[nH]n1
2.85	0.0784	COc1cc(Nc2nc(N[C@@H](C)c3ncc(F)cn3)nc(N3CCOCC3)c2Cl)n[nH]1
2.03	0.007	Cc1nc(C(=O)[C@H](C)Oc2ccc(SCCCCCc3ccccc3)cc2)sc1CCCC(=O)O
1.91	0.016	CC(C)[C@H](NC(=O)C[C@H](NC(=O)/C=C/c1ccccc1)c1ccccc1)C(=O)[C@@H]1C(=O)NC(=O)[C@H]1C
2.92	0.0409	COc1ccnc(CCc2nc3cc(Br)cnc3[nH]2)c1
2.03	0.02	O=C(Cc1ccc(Oc2ccccc2)cc1)NO
2.12	0.197	CN[C@@H](C)C(=O)N[C@H](C(=O)N[C@H]1CCCCN(Cc2ccccc2)C1)C1CCCCC1
2.34	0.266	CN[C@@H](C)C(=O)N[C@H](C(=O)N(C)[C@H]1CCCN(CCc2ccccc2)C1)C1CCCCC1
2.51	0.262	CN[C@@H](C)C(=O)N[C@H](C(=O)N[C@H]1CCCN(CCc2ccccc2F)C1)C1CCCCC1
2.39	0.266	CN[C@@H](C)C(=O)N[C@H](C(=O)N[C@H]1CCCN(CCc2ccc(F)cc2)C1)C1CCCCC1
2.85	0.0928	CN[C@@H](C)C(=O)N[C@H](C(=O)N[C@H]1CCCN(CCc2ccc(C(F)(F)F)cc2)C1)C(C)(C)C
2.19	0.0321	NS(=O)(=O)c1ccc(CCNc2ccc3nnc(-c4ccccc4)n3n2)cc1
2.84	0.0752	Cc1cnc(Nc2ccc(N3CCN(C)CC3)cc2)nc1Nc1cccc(S(=O)(=O)NC(C)(C)C)c1
2.56	0.112	CNc1c(Br)cnc2nc(-c3ccc(OCCN4CCCCC4)cc3)[nH]c12
2.88	0.0477	CNc1c(Br)cnc2[nH]c(-c3ccc(S(C)(=O)=O)cc3)nc12
2.96	0.0988	CNc1c(Br)cnc2[nH]c(-c3cccc(N)c3)nc12
2.83	0.0268	CNc1c(Br)cnc2nc(-c3ccnc(N)c3)[nH]c12
2.91	0.0383	CNc1c(Br)cnc2nc(-c3ccc(OCCN4CCN(C)CC4)cc3)[nH]c12
2.14	0.212	CNc1c(C(N)=O)cnc2[nH]c(-c3ccc(OCCN4CCOCC4)cc3)nc12
2.63	0.0191	CNc1c(Cl)cnc2nc(-c3ccc(OCCN4CCOCC4)cc3)[nH]c12
2.19	0.051	O=c1[nH]c([C@@H]2CCCN2)nc2c1oc1ccc(Br)cc12
2.01	0.072	O=c1[nH]c([C@@H]2CCCN2)nc2c1oc1ccc(Cl)cc12
2.48	0.0499	N#Cc1cnn2c(N)cc(-c3ccccc3)nc12
2.42	0.0676	COc1ccc(-c2cc(N)n3ncc(C#N)c3n2)cc1
2.23	0.0544	N#Cc1cnn2c(N)cc(-c3ccc(F)cc3)nc12
2.88	0.016	N#Cc1cnn2c(NC3CC3)cc(-c3cccs3)nc12
2.97	0.0179	COc1ccc(-c2cc(Nc3ccn(C)n3)n3ncc(C#N)c3n2)cc1

logD (physchem)	fraction unbound at 5 h (in vitro)	Structure (SMILES)
2.69	0.0251	CC(=O)Nc1cnc2ccn(-c3cc(NC4CC4)n4ncc(C#N)c4n3)c2c1
2.58	0.0409	CC(=O)Nc1ccc2ccn(-c3cc(NCCCCO)n4ncc(C#N)c4n3)c2c1
2.24	0.0556	CC(=O)Nc1ccc2ccn(-c3cc(NCCN4CCCC4)n4ncc(C#N)c4n3)c2c1
2.49	0.0179	CS(=O)(=O)Cc1ccc2ccn(-c3cc(NC4CC4)n4ncc(C#N)c4n3)c2c1
2.74	0.212	C[C@H](Nc1ccc2ncn(-c3cc(C4CC4)[nH]n3)c2n1)c1ncc(F)cn1
2.41	0.309	CC(C)Oc1cc(-n2cnc3cnc(N[C@@H](C)c4ncc(F)cn4)nc32)n[nH]1
1.96	0.0358	Cc1cn([C@H]2CCCN(S(=O)(=O)c3ccc(C(N)=O)c(Oc4cccc(Cl)c4)c3)C2)c(=O)[nH]c1=O
2.01	0.0081	CN1CCCC1CCNC(=O)c1ccc(Nc2ncc3cc(-c4ccncc4)ccc3n2)cc1 (stereo not drawn)
2.49	0.0358	C[C@@H](NC1=CC(=O)CNC1)c1ccc(Nc2ncc3cc(-c4ccncc4)ccc3n2)cc1
2.99	0.0335	CC[C@@H](CO)Nc1nc(SCc2ccccc2)nc2nc(N)sc12
2.1	0.107	CC(=O)Nc1cccc(Nc2nc(NC3CC3)n3ncc(C#N)c3n2)c1
2.16	0.258	Cc1ncc(-c2nc(Nc3ccc(C(=O)N4CC[C@H](N(C)C)C4)cc3)ncc2F)n1C(C)C
2.34	0.0179	CCNC(=O)Nc1nc2cc(-c3cccnc3)ccc2[nH]1
2.83	0.0119	Cc1ccc(NC(=O)c2ccc(Cl)c(C(F)(F)F)c2)cc1C(=O)Nc1cccnc1
2.18	0.253	COc1cc2ncc(C(N)=O)c(Nc3ccc(F)cc3F)c2cc1N1CCN(C)CC1
2.24	0.151	COCCOc1cc2ncc(C(N)=O)c(Nc3ccc(C)cc3F)c2cc1N1CCN(C)CC1
2.3	0.258	CN1CCN(c2ccc3ncc(C(N)=O)c(Nc4ccc(F)cc4F)c3c2)CC1
2.63	0.244	CN1CCN(c2cc3c(Nc4ccc(F)cc4F)c(C(N)=O)cnc3cc2F)CC1
2.74	0.089	CCOc1cc2ncc(C(N)=O)c(Nc3ccc(F)cc3F)c2cc1N1CCC(O)CC1
2.13	0.0544	O=C(c1cccc(Cc2n[nH]c(=O)c3ccccc23)c1)N1CCN(c2ncccn2)CC1
1.94	0.072	O=C(O)CNCCNc1ccc(Cl)c(C(=O)NCC23CC4CC(CC(C4)C2)C3)c1
2.86	0.0594	Cc1cc(Nc2nc(O[C@@H](C)c3ccc(F)cn3)c(C#N)nc2C)[nH]n1
2.72	0.0219	Cc1cc(Nc2nc(O[C@H](C)c3ccc(F)cn3)c(C#N)nc2C)[nH]n1
2.01	0.224	COc1cnc(-c2ccccn2)nc1NC(C)C
2.99	0.013	N#Cc1ccc2c(c1)NC(=O)C2c1ncnc2cc(OCCCN3CCOCC3)ccc12 (stereo not drawn)

From ChEMBL document CHEMBL3301361, “Experimental in vitro DMPK and physicochemical data on a set of publicly disclosed compounds”
